Results: patent US12458641B2, “NK-3 receptor antagonists for therapeutic or cosmetic treatment of excess body fat” (Ogeda SA, priority 2015, dated 2025)
Several values for one entry are separate records, joined by “and”; a condition that tells them apart may be missing. Equal values may be shown once.

Legend:
[1] = rats fed standard chow or high-fat diet (Li et al., 2014); cited from earlier work
[2] = Body weight and BMI in healthy women with normal corpulence; type: in vivo, human; settings: 60 mg for 21 consecutive days, individual subjects
Procedure: Healthy women with normal corpulence, i.e. having a BMI ranging from 18.5 to 25 kg/m^2, received 60 mg of compound k-5 for 21 consecutive days.
(§1) The weight was measured at screening which took place between 28 and 2 days before start of dosing (D-28 to D-2), as well as on the follow-up visit planned on D42 (21 days after cessation of study compound intake).

[3] = Multiple ascending dose administration in healthy women: body weight; type: in vivo, human; settings: for Weight D 42 / Weight Screening: group mean; for Weight D 42: 21 days after last dose; for Weight Screening: before dosing (D-28 to D-2); for Pre vs Post Difference / Pre vs Post Difference (%): screening vs D42
Procedure: Three Panels A, B, and C, each consisting of 6 healthy women, were randomized to receive different dose level of compound k-5. In those 3 panels, compound k-5 is administered for 21 consecutive days.
Subjects were residential from the day before first dosing (D-1) until Day 24 (=72 hours after the last dose intake on Day 21). Weekly non-residential visits were organized on Day 28, Day 35 (±1 day) and a follow-up visit on Day 42 (±2 days). Ascending multiple doses of compound k-5 were administered in a once-daily regimen for 21 consecutive days. […] Subjects received the trial medication in a q.d. regimen and after a light breakfast.
Subjects were recruited on the basis of their medical history and health status. Especially, subjects meeting all of the following criteria were eligible to participate in this study: • 1) Premenopausal females between 18 and 45 years of age inclusive. • 2) Healthy with no clinically significant abnormalities as determined by medical history, physical examination, blood chemistry assessments, hematologic assessments, coagulation and urinalysis, measurement of vital signs, and ECG. Isolated out-of-range values judged by the physician to be of no clinical significance were allowed. […] Weight Measurement
The weight was measured at screening, which took place between 28 and 2 days before start of dosing (D-28 to D-2), and at the end-of-study visit (D42, i.e. 21 days after cessation of study compound intake).
A two-tailed T-test for paired samples was used to explore the difference between the screening and post-study values for weight.

leptin [4] = assay: Plasma leptin level in women (placebo-controlled, ELISA); type: in vivo, human; settings: non-obese premenopausal women; 20, 60 and 180 mg once daily, all dose levels; p<0.05 paired t-test (FIG. 4)
Text: This was a randomized, double-blind, placebo-controlled study. All subjects provided written informed consent prior to screening for study eligibility. Healthy female volunteers aged 20-45 years with a body mass index of 19-30 kg/m^2 were included. Participants needed to be in good physical health including the presence of a regular ovulatory menstrual cycle and the discontinuation of all hormonal contraceptive methods at least 3 months prior to screening. Three panels of 8 non-obese female volunteers (median BMI of each panel: 22.3, 23.4, 25.2 kg/m^2) each were administered capsules of compound k-5 or matching placebo in a 6:2 ratio for 21 days. Subjects received the study medication in a once daily regimen after a light standardized breakfast. The participants in these panels were synchronized for their menstrual cycle; i.e. the initiation of dosing was always on Day3±2 of the menstrual cycle. The dose levels investigated were 20, 60 and 180 mg of compound k-5. Blood samples were collected on the day prior to dosing as well as on Day 21 (the final day of dosing) and plasma fractions were retained and stored frozen (−20° C.) until analysis. Leptin concentrations in these plasma samples were determined by ELISA assay (Human Leptin Kit: R&D Systems, Cat. N° DLP00) based upon linear regression analysis against a standard curve.

[5] = 13-week once-daily oral dosing in cynomolgus monkeys: body weight; type: in vivo, cynomolgus monkeys (Macaca fascicularis); settings: female monkeys, 13 weeks, 50 mg/kg (FIG. 3), vehicle group gained about 12%
Text: The cynomolgus monkey was selected as a relevant species because of the similarity of nonhuman primates (NHP) to humans. The route of administration is oral consistent with the intended route in humans.
(§2) Sexually-mature (age range of ˜4 years at pre-dose), purpose-bred cynomolgus monkeys (Macaca fascicularis) of Asian origin were used. Sexual maturity was proven by recording of at least two menstrual bleedings (with 20-to-50 days between menstruations) prior to entry into the study.
NHPs were maintained on a standard lab diet of twice-daily offerings of commercial pellets for primates supplemented with fresh fruit and bread. Dietary and environmental enrichment were also provided through the study duration. Animals were housed in a climate (19-25° C.) and humidity (40-70%) controlled environment with artificial lighting controlled automatically to give a cycle of 12 hours light and 12 hours dark.
NHPs were divided into three treatment groups: vehicle control (N=6) and compound k-5 Dose Groups of 10 mg/kg (N=4) and 50 mg/kg (N=6), respectively. All NHPs were dosed once daily (morning) by oral gavage over the 13 week treatment period of the study. The dose vehicle was 0.5% methylcellulose (Methocel® from Colorcon) in water. […]

[6] = Body weight and BMI in overweight women; type: in vivo, human; settings: 180 mg for 21 consecutive days, individual subjects
Procedure: Overweight women, i.e. having a BMI ranging from 25 to 30 kg/m^2, received 180 mg of compound k-5 for 21 consecutive days.
as §1

[7] = 13-week oral dosing in cynomolgus monkeys: whole-body DEXA scan (lean mass, bone mineral density, bone mineral content, fat mass); type: in vivo, cynomolgus monkeys (Macaca fascicularis)
Procedure: as §2
(§3) NHPs were divided into three treatment groups: vehicle control (N=6) and compound k-5 Dose Groups of 10 mg/kg (N=4) and 50 mg/kg (N=6), respectively. All NHPs were dosed once daily (morning) by oral gavage over the 13 week treatment period of the study. The dose vehicle was 0.5% methylcellulose (Methocel® from Colorcon) in water.
All NHPs were subjected to a body weight measurement and DEXA scan (Dual-energy X-ray absorptiometry, Hologic Dexa QDR® 4000) in the pre-dose phase and in the final week (week-13) of the dosing phase. The measurements were made under ketamine anesthesia with dorbene and antisedan.
The whole body was scanned by DEXA for measurement of lean mass, bone mineral density, bone mineral content and fat mass.

leptin [8] = assay: Plasma leptin level in female rats over the estrous cycle (ELISA, AUC); type: in vivo; settings: 10 mg/kg oral BID, p<0.05 paired t-test (FIG. 5)
Procedure: Daily plasma samples were collected each morning from sexually-mature female rats and analyzed for peak estrogen levels (coincident with proestrus) in order to define the timing of the estrous cycle for individual rats. Next, rats were dosed orally BID (i.e. twice a day) with vehicle (0.5% methylcellulose) over a 4-day ‘baseline’ estrous cycle. Plasma samples were collected daily, each morning, and stored frozen prior to analysis for leptin. […] Plasma samples were collected daily, each morning, and stored frozen prior to analysis for leptin. In a single experiment, plasma samples collected daily during both the ‘baseline’ and ‘treatment’ cycles were analyzed in a common experiment by ELISA assay based upon linear regression analysis against a standard curve. Leptin levels over the 4-day estrous cycle were calculated for individual rats by determination of AUC (area-under-the-curve) using credited data analysis software (GraphPad Prism).

leptin [9] = assay: 13-week oral dosing in cynomolgus monkeys: serum leptin by ELISA; type: in vivo, cynomolgus monkeys (Macaca fascicularis)
Procedure: as §3
All NHPs were subjected to leptin levels measurements. Blood samples were collected at 08 h00 in the morning from overnight-fasted animals on Day-2 prior to dosing (‘pre-dose’), 24 h after the initial dosing, on day 52 of dosing and on day 86 of dosing. Serum samples were derived from these blood samples and stored frozen (−20° C.) until analysis. Leptin concentrations in these serum samples were determined by ELISA assay (Monkey Kit: MyBiosource Cat. N° MBS705354) based upon linear regression analysis against a standard curve.

In the case of CC[C@H](NC(=O)c1c(C)c(-c2ccccc2)nc2ccccc12)c1ccccc1 [SB222200, 3-Methyl-2-phenyl-N-[(1S)-1-phenylpropyl]-4-quinolinecarboxamide], the effect on weight [1] is given as “no effect on weight was observed”.
In the case of Cc1nsc(-c2nnc3n2CCN(C(=O)c2ccc(F)cc2)[C@@H]3C)n1 [k-5, (R)-(4-fluorophenyl)(8-methyl-3-(3-methyl-1,2,4-thiadiazol-5-yl)-5,6-dihydro-[1,2,4]triazolo[4,3-a]pyrazin-7(8H)-yl)methanone], the “BMI D 42” value ([2]; D42) is reported as 21.45 and 22.95 and 21.39, the BMI screening ([2]; before dosing) is reported as 22.18 and 23.71 and 21.55 and the “Difference” value ([2]; screening vs D42) is reported as -2.2 kg and -2 kg and -0.5 kg. The “Difference (%)” value ([2]; screening vs D42) was −3.43% and −3.28% and −0.74%, the “Weight D 42” value ([2]; women BMI 18.5 to 25 kg/m^2, D42) was 64.2 kg and 61 kg and 67.8 kg and the “Weight Screening” value ([2]; women BMI 18.5 to 25 kg/m^2, before dosing) was 66.4 kg and 63 kg and 68.3 kg. For the same molecule, the “Weight D 42” value ([3]; 20 mg once daily for 21 days) was 58.0 kg, the “Weight Screening” value ([3]; 20 mg once daily for 21 days) was 58.2 kg and the “Pre vs Post Difference” value ([3]; 20 mg once daily for 21 days) was -0.13 kg. The “Pre vs Post Difference (%)” value ([3]; 20 mg once daily for 21 days) was −0.23%, the “Weight D 42” value ([3]; 60 mg once daily for 21 days) was 71.9 kg and the “Weight Screening” value ([3]; 60 mg once daily for 21 days) was 73.3 kg. For the same molecule, the “Pre vs Post Difference” value ([3]; 60 mg once daily for 21 days) was -1.38 kg, the “Pre vs Post Difference (%)” value ([3]; 60 mg once daily for 21 days) was −1.92% and the “Weight D 42” value ([3]; 180 mg once daily for 21 days) was 66.9 kg. For the same molecule, the “Weight Screening” value ([3]; 180 mg once daily for 21 days) was 69.0 kg, the “Pre vs Post Difference” value ([3]; 180 mg once daily for 21 days) was -2.10 kg and the “Pre vs Post Difference (%)” value ([3]; 180 mg once daily for 21 days) was −3.14%. The “weight lowering with increasing doses” value ([3]; 20, 60, 180 mg once daily for 21 days, healthy women) was “dose-dependent trend exists towards weight lowering”, the “leptin levels following 21 days of treatment relative to pre-dose levels” value (leptin [4]) was “increases serum leptin levels” and the “change in mean weight over the course of the dosing phase” value [5] was “no significant change”. The “BMI D 42” value ([6]; D42) was 26.79 and 26.17 and 26.21, the BMI screening ([6]; before dosing) was 27.94 and 27.81 and 27.15 and the “Difference” value ([6]; screening vs D42) was -2.8 kg and -4.2 kg and -3 kg. The “Difference (%)” value ([6]; screening vs D42) was −4.29% and −6.27% and −3.57%, the “Weight Screening” value ([6]; overweight women BMI 25 to 30 kg/m^2, before dosing) was 68 kg and 71.2 kg and 87 kg and the “Weight D 42” value ([6]; overweight women, D42) was 65.2 kg and 67 kg and 84 kg. For the same molecule, the “% fat/total mass, treated versus vehicle-treated group” value ([7]; 50 mg/kg, week 13, N=6/group) was “statistically-significant difference”, the “change in % fat/total mass over the 13-week treatment period (DEXA)” value ([7]; 10 and 50 mg/kg dose groups, pre-dose vs week 13, increased in the vehicle group (FIG. 1)) was “no significant change” and the “plasma leptin levels over the 4-day estrous cycle (AUC) versus baseline cycle” value (leptin [8]) was “increases plasma leptin levels”. The “serum leptin levels 24-hours after initial dosing” value (leptin [9]; 50 mg/kg oral (FIG. 2), relative to pre-dose and to time-matched vehicle group) was “significantly increases” and the “serum leptin levels over the duration of dosing relative to vehicle-treated group” value (leptin [9]; 50 mg/kg oral once daily, up to day 86 (FIG. 2)) was “persistently higher”.
